In BindingDB's records for doi:10.1016/j.chembiol.2005.02.004 (Purdue University, 2005) one finds IC50 and Ki data, which are given here for twelve compounds.

Molecules are shown by their SMILES. Numbered stars: 1 amine (or outer) side, 2 acyl side, 3 side chain; on linkers, the order of the positions; unused ones are H or OH. Bridge positions count the residues as written; N and C are the ends. Square brackets hold non-standard residues; d marks the D form. Peptide text beside a SMILES is read from it. I, II: the chains in the order shown. * marks the point of attachment. C16 diacid = O=C(O)CCCCCCCCCCCCCCC(=O)*; X1 = NC(O)C[C@H](N[*:1])C(=O)[*:2]

By IC50 is commonly meant the point on the concentration scale where inhibition reaches its midpoint. For orientation: Ki means a measure of affinity in units of concentration, obtained from inhibition or displacement.

The target in one experiment is T1, Capsid scaffolding protein (Human herpesvirus 1 (strain 17), UniProt P10210).
T1 sequence (P10210 whole entry): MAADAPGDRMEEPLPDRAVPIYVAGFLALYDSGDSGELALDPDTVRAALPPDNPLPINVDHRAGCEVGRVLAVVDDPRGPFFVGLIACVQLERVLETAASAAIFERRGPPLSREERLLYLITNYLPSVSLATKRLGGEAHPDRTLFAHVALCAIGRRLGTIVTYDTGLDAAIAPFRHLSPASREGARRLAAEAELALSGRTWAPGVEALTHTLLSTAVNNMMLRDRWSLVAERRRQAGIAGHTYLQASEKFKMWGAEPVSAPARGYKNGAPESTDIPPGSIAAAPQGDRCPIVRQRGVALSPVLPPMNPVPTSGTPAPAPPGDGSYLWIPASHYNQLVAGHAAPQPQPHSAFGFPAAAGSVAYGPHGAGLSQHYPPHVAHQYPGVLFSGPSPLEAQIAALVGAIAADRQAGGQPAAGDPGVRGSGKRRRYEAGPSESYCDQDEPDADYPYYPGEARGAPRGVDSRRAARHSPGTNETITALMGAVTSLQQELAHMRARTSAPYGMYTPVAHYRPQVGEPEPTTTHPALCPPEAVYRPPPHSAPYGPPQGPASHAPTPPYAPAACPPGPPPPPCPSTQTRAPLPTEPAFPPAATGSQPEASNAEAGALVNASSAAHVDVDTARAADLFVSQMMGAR
Kind of experiment: Competitive Assay. As to conditions: pH 5.52. From the text:
The competitive assay requires two inhibitors to act by a purely competitive mechanism, whereas the binding site of on the inhibitors has been established.
In turn, `CC[C@H](C)[C@H](NC(=O)[C@H](CCC(N)=O)NC(=O)[C@@H]1CCCN1C(=O)CCCCCCCCCCCCCCC(=O)N[C@@H](CO)C(=O)N[C@H](C(=O)N[C@H](C(=O)N[C@@H](CC(N)O)C(=O)N[C@@H](Cc1ccccc1)C(=O)O)C(C)C)[C@@H](C)O)C(=O)N[C@H](C(=O)N[C@@H](CC(C)C)C(=O)N[C@@H](Cc1c[nH]c2ccccc12)C(=O)O)[C@@H](C)O` (stereo partly specified) [Pepstatin analog, 1] (I: PQITLW-OH / II: STV[X1]F-OH; linker I:N-II:N via C16 diacid) showed an IC50 of 350 nM and a Ki of 220 nM.

Compound `CC(C)C[C@H](NC(=O)[C@@H](NC(=O)CCCCCCCCCCCCCCC(=O)N[C@H](CC(N)=O)C(=O)N[C@H](Cc1ccccc1)C(=O)O)C(C)O)C(=O)N[C@@H](Cc1ccccc1)C(N)=O` (stereo partly specified) [Pepstatin analog, 2] came in with an IC50 of 5900 nM and a Ki of 3000 nM. `CC(C)C[C@H](NC(=O)[C@@H](NC(=O)CCCCCCCCCCCCCCC(=O)N[C@H](CC(N)=O)C(=O)N[C@@H](Cc1ccccc1)C(=O)O)C(C)O)C(=O)NCCc1ccccc1` (stereo partly specified) [Pepstatin analog, 3] showed an IC50 of 5800 nM.

In turn, `CC(C)C[C@@H](NC(=O)[C@H](NC(=O)CCCCCCCCCCCCCCC(=O)N[C@H](CC(N)=O)C(=O)N[C@@H](Cc1ccccc1)C(=O)O)C(C)O)C(=O)NCCc1cccc(O)c1` (stereo partly specified) [Pepstatin analog, 4] yielded an IC50 of 4400 nM and a Ki of 1130 nM. In the same order, the values of `COc1cccc(CCNC(=O)[C@@H](CC(C)C)NC(=O)[C@H](NC(=O)CCCCCCCCCCCCCCC(=O)N[C@H](CC(N)=O)C(=O)N[C@@H](Cc2ccccc2)C(=O)O)C(C)O)c1` (stereo partly specified) [Pepstatin analog, 5] are 4900 nM and 1290 nM.

In a further experiment the target is T1, Capsid scaffolding protein. The experiment is described as follows: Zhang-Poorman Assay. Conditions: pH 5.52.
`CC(C)C[C@@H](NC(=O)[C@H](NC(=O)CCCCCCCCCCCCCCC(=O)N[C@H](CC(N)=O)C(=O)N[C@@H](Cc1ccccc1)C(=O)O)C(C)O)C(=O)NCCc1ccc(O)cc1` (stereo partly specified) [Pepstatin analog, 6] displayed an IC50 of 5800 nM. `COc1ccc(CCNC(=O)[C@@H](CC(C)C)NC(=O)[C@H](NC(=O)CCCCCCCCCCCCCCC(=O)N[C@H](CC(N)=O)C(=O)N[C@@H](Cc2ccccc2)C(=O)O)C(C)O)cc1` (stereo partly specified) [Pepstatin analog, 7] registered a 50% inhibitory concentration (IC50) of 2700 nM and a Ki of 720 nM. For `CC(C)C[C@@H](NC(=O)[C@H](NC(=O)CCCCCCCCCCCCCCC(=O)N[C@H](CC(N)=O)C(=O)N[C@@H](Cc1ccccc1)C(=O)O)C(C)O)C(=O)NCCc1ccc(O)c(O)c1` (stereo partly specified) [Pepstatin analog, 8], in that order: 2900 nM and 600 nM.

In turn, `COc1ccc(CCNC(=O)[C@@H](CC(C)C)NC(=O)[C@H](NC(=O)CCCCCCCCCCCCCCC(=O)N[C@H](CC(N)=O)C(=O)N[C@@H](Cc2ccccc2)C(=O)O)C(C)O)cc1OC` (stereo partly specified) [Pepstatin analog, 9] had an IC50 of 4300 nM. In the case of `CC(C)C[C@@H](NC(=O)[C@H](NC(=O)CCCCCCCCCCCCCCC(=O)N[C@H](CC(N)=O)C(=O)N[C@@H](Cc1ccccc1)C(=O)O)C(C)O)C(=O)NCCc1ccc(N)cc1` (stereo partly specified) [Pepstatin analog, 10], the IC50 amounted to 2500 nM and the Ki is 650 nM. In turn, `CC(C)C[C@@H](NC(=O)[C@H](NC(=O)CCCCCCCCCCCCCCC(=O)N[C@H](CC(N)=O)C(=O)N[C@@H](Cc1ccccc1)C(=O)O)C(C)O)C(=O)NCCc1ccc(Oc2ccccc2)cc1` (stereo partly specified) [Pepstatin analog, 11] gave an IC50 of 730 nM and a Ki of 175 nM. For `CC(C)C[C@@H](NC(=O)[C@H](NC(=O)CCCCCCCCCCCCCCC(=O)N[C@H](CC(N)=O)C(=O)N[C@@H](Cc1ccccc1)C(=O)O)C(C)O)C(=O)NCCc1ccc(Oc2ccc(O)cc2)cc1` (stereo partly specified) [Pepstatin analog, 12], in that order: 360 nM and 96 nM.
